Experimental data published in US20200017496A1 (priority 2017, published 2020).
Read-outs that look alike come from different tables or passages of the source.

Experiments:
KPC-2 = target: T1, KPC-2 (Klebsiella pneumoniae, UniProt Q9F663); assay: biochemical
T1 construct: made in house; host or cells: E. coli

OXA-15 = target: T2, OXA-15 (Pseudomonas aeruginosa, UniProt Q51574); assay: biochemical
T2 construct: made in house; host or cells: E. coli

SHV-1 = target: T3, SHV-1 (Klebsiella pneumoniae, UniProt P0AD64); assay: biochemical
T3 construct: made in house; host or cells: E. coli
T3 sequence (P0AD64 22-286): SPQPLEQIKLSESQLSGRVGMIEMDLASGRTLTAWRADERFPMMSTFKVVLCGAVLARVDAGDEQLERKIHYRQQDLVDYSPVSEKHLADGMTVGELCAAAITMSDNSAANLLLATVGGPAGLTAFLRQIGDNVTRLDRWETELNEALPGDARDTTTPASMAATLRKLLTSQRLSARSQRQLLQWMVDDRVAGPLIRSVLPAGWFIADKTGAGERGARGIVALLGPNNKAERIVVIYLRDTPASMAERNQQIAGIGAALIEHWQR

OXA-51 = OXA-51 (Acinetobacter baumannii, UniProt Q5QT35)
Sequence of OXA-51 (Q5QT35 26-274): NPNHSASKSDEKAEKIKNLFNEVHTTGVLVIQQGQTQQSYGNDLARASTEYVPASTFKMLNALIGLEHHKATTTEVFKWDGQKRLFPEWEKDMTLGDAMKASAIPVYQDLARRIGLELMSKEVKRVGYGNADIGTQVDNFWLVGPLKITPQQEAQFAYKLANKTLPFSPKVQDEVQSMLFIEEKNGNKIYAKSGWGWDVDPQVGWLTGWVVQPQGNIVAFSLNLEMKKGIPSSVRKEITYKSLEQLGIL
Method: (§1) Method 1: β-Lactamase Inhibitory Activity, Determination of IC50 (Table 1)
(§2) Enzymes were cloned in E. coli expression vector, expressed and purified in house using classical procedures. […] After 30 min of pre-incubation at room temperature, 155 μL of NCF (100 μM final) were finally added in each well. […] Enzyme activity was obtained by subtracting the background from the final signal, and was converted to enzyme inhibition using non inhibited wells. IC50 curves were fitted to a classical Langmuir equilibrium model with Hill slope using XLFIT (IDBS).

SHV-12 = target: T4, SHV-12 (Klebsiella pneumoniae, UniProt P0AD64, E235K/G234S/L31Q); assay: β-lactamase inhibitory activity, IC50 (nitrocefin hydrolysis); format: biochemical
T4 construct: made in house; host or cells: E. coli
T4 sequence (P0AD64 22-286 L31Q/G234S/E235K): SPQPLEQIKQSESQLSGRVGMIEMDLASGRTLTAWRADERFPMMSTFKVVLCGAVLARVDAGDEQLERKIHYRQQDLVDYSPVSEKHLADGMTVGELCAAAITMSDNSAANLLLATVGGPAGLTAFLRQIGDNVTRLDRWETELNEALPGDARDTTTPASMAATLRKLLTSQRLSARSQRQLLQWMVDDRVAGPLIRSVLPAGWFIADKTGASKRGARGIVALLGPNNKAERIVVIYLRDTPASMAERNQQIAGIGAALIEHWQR

OXA-23 = target: T5, OXA-23 (Acinetobacter baumannii, UniProt Q9L4P2); assay: biochemical
T5 construct: made in house; host or cells: E. coli
T5 sequence (Q9L4P2 18-273): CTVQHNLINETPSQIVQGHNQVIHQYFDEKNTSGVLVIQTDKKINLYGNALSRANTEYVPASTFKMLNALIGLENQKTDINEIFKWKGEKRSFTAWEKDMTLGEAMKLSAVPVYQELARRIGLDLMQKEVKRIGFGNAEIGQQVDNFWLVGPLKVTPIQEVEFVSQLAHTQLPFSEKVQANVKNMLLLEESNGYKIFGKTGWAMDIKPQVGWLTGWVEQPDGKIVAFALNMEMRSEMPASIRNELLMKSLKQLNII

OXA-48 = target: T6, OXA-48 (Klebsiella pneumoniae, UniProt Q6XEC0); assay: biochemical
T6 construct: made in house; host or cells: E. coli
T6 sequence (Q6XEC0 23-265 limits assumed): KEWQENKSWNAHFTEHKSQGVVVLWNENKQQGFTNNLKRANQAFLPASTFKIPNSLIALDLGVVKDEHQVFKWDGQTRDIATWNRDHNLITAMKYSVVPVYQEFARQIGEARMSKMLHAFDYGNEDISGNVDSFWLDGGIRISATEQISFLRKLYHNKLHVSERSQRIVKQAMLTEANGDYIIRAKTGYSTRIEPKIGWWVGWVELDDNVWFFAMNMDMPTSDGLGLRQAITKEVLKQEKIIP

[1] = Rat intraduodenal bioavailability determination (Method 3); format: in vivo, Sprague-Dawley (SD) rats; details: male, Sprague-Dawley, AF1 titrated in plasma
OXA-1 = target: T7, OXA-1 (Escherichia coli, UniProt P13661); assay: biochemical
T7 construct: made in house; host or cells: E. coli
T7 sequence (P13661 26-276): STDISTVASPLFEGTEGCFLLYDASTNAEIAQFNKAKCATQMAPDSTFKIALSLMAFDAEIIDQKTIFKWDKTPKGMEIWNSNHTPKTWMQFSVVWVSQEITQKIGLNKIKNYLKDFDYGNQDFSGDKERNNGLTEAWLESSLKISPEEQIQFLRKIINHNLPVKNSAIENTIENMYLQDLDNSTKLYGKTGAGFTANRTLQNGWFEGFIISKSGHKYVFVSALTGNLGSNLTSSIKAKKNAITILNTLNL

CTX-M-15 = target: T8, CTX-M-15 (Escherichia coli, UniProt Q9EXV5); assay: biochemical
T8 construct: made in house; host or cells: E. coli
T8 sequence (Q9EXV5 entry or part of it): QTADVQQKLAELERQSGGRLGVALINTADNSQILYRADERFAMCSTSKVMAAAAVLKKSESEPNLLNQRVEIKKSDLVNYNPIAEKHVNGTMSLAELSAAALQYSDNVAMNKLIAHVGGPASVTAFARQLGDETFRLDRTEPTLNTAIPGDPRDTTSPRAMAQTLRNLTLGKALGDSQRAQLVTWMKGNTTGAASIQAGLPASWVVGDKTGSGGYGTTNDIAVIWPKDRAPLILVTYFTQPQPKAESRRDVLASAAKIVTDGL

OXA-58 = target: T9, OXA-58 (Acinetobacter baumannii, UniProt Q2TR58); assay: β-lactamase inhibitory activity, IC50 (nitrocefin hydrolysis); format: biochemical
T9 construct: made in house; host or cells: E. coli
T9 sequence (Q2TR58 19-280, species assumed): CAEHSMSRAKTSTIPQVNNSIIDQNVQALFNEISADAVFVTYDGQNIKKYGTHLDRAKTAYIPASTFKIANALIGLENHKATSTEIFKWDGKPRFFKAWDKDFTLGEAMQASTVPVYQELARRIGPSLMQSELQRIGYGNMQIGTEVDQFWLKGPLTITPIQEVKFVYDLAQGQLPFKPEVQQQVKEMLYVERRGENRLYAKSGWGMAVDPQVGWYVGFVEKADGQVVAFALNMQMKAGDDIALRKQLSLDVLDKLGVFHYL
Method: as §1, §2

[2] = target: CMY-37 (Citrobacter freundii); assay: as above; format: biochemical
Sequence of CMY-37 (Citrobacter freundii) (A0A9R8 21-381): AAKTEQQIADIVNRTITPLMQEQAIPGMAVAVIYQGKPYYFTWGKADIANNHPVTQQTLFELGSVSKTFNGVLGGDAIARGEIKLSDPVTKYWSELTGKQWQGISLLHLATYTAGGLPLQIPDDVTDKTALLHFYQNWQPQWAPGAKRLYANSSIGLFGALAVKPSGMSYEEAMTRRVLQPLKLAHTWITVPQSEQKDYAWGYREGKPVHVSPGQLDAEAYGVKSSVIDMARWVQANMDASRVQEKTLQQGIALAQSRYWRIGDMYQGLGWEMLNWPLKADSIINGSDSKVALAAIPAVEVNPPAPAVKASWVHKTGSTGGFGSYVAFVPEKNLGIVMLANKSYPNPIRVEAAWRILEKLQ
Method: as §1, §2

OXA-11 = target: T10, OXA-11 (Pseudomonas aeruginosa, UniProt Q06778); assay: as above; format: biochemical
T10 construct: made in house; host or cells: E. coli
T10 sequence (Q06778 21-266): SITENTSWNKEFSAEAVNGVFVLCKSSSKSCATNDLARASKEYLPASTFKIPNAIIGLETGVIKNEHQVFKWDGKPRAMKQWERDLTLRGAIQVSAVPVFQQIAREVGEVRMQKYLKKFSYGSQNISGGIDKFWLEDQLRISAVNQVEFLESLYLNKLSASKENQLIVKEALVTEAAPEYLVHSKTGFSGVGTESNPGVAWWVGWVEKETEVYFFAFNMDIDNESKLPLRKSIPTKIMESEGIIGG
Method: as §1, §2

OXA-40 = target: T11, OXA-40 (Acinetobacter baumannii, UniProt Q8RLA6); assay: biochemical
T11 construct: made in house; host or cells: E. coli
T11 sequence (Q8RLA6 entry or part of it): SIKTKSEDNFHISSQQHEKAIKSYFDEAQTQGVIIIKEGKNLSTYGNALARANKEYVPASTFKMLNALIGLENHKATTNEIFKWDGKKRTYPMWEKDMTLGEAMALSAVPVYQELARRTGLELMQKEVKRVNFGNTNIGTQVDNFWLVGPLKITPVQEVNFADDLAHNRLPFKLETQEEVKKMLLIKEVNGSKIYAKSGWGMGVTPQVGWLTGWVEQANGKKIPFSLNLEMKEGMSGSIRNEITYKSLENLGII
Method: as §1, §2

P99 ampC = target: T12, P99 ampC (Enterobacter cloacae, UniProt P05364); assay: biochemical
T12 construct: made in house; host or cells: E. coli
T12 sequence (P05364 21-381): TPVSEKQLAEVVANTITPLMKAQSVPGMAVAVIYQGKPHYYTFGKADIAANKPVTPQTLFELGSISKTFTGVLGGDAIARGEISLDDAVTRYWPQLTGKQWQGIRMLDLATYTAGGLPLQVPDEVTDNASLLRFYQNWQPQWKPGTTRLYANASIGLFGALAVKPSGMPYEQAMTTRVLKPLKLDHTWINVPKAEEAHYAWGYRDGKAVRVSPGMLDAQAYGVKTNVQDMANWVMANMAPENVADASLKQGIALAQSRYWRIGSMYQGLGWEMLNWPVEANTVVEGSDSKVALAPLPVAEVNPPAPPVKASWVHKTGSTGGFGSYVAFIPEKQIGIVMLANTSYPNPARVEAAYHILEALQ
Method: as §1, §2

PAE ampC = PAE ampC (Pseudomonas aeruginosa, UniProt P24735); assay: biochemical
Sequence of PAE ampC (P24735 27-397): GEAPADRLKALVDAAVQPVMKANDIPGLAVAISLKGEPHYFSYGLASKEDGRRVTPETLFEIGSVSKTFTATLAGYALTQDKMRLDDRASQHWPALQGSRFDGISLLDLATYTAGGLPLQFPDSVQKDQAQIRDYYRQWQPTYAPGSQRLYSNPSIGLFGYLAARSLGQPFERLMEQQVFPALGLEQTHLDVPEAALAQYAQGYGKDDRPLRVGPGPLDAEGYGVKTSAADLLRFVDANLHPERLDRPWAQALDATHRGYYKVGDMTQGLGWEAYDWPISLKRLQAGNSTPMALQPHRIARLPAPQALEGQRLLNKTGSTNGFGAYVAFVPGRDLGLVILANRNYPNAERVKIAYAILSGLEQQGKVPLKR
Method: as §1, §2

SAU PC1 = SAU PC1 (Staphylococcus aureus, UniProt P00807); assay: biochemical
Sequence of SAU PC1 (P00807 25-281): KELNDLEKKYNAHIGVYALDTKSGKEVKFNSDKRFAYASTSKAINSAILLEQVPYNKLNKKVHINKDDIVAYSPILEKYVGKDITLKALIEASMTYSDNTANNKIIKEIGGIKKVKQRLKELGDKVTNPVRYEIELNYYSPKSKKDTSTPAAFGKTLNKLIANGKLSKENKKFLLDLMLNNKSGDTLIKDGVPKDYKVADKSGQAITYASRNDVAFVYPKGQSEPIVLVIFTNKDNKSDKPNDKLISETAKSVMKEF
Method: as §1, §2

[3] = Mouse oral bioavailability determination, CEFIXIME/Example 3 combination (Method 4); set-up: species or system Swiss Mouse; details: male, Swiss; Mouse; intravenous 30 mg/kg; AF1 titrated in plasma; read-out: AUC0-∞
Method: Water and food were available ad libitum throughout the study. Mouse were handled in accordance with the institutional and national guidelines for the care and use of laboratory animals. […] Drugs were administered by oral gavage using feeding needle. […] Plasma samples were stored at -80° C. until bioanalysis. […] Plasma samples bioanalysis and data analysis The plasma samples (20 μl) were thawed at 0° C. […] Standard samples were prepared by spiking the blank plasma into concentrations 10-5 000 ng/ml and otherwise treated as the samples. […] Mass spectrometric detection involved electrospray ionization in the negative mode followed by multiple reaction monitoring of the drugs and internal standard transitions. Actual drug concentrations were deduced from interpolation of the standard curve. The pharmacokinetic parameters were calculated using XLfit (IDBS) and Excel (Microsoft) software, using standard non-compartmental methods. The intraduodenal bioavailability was calculated by dividing the AUC obtained from the intraduodenal administration by the AUC obtained from the intravenous administration.

TEM-1 = target: T13, TEM-1 (Escherichia coli, UniProt P62593); assay: β-lactamase inhibitory activity, IC50 (nitrocefin hydrolysis); format: biochemical
T13 construct: made in house; host or cells: E. coli
T13 sequence (P62593 24-286 limits assumed): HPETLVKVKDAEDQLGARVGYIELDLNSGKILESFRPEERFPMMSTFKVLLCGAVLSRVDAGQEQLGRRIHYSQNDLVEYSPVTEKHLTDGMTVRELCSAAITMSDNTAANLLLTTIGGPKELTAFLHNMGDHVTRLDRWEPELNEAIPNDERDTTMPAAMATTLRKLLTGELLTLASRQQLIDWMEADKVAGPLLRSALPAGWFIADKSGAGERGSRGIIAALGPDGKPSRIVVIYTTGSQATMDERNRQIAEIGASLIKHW

[4] = system: Proteus mirabilis (PMI) isolates; assay: microbe, parasite or virus in culture; format: cell-based
Method: (§3) Method 2: MIC of Compounds Alone and Combined with Antibacterials Against Bacterial Isolates.
(§4) Compounds of the present invention were assessed against genotyped bacterial strains (Table 3, 4) alone or in combination with an antibacterial (Table 2). […] Log phase bacterial suspensions were adjusted to a final density of 5·10^5 CFU/mL in cation-adjusted Mueller-Hinton broth (ca-MHB; Becton-Dickinson and Company) and added to each well (98 μL). Microplates were incubated for 16-20 h at 35° C. in ambient air. The MIC of the compounds was defined as the lowest concentration of said compounds that prevented bacterial growth as read by visual inspection. The MIC of ATB at each compound concentration was defined as the lowest concentration of ATB that prevented bacterial growth as read by visual inspection.

[5] = system: Serratia marcescens (SMA) isolates; assay: MIC of compounds alone and combined with antibacterials, broth microdilution (CLSI); format: cell-based; details: Serratia marcescens
Method: as §3, §4

[6] = system: Enterobacter aerogenes (EAE) isolates; assay: as above; format: cell-based; details: Klebsiella aerogenes
Method: as §3, §4

[7] = system: Citrobacter freundii (CFR) isolates; assay: as above; format: cell-based; details: Citrobacter freundii
Method: as §3, §4

[8] = system: Klebsiella pneumoniae (KPN) isolates; assay: as above; format: cell-based
Method: as §3, §4

[9] = system: Escherichia coli (ECO) isolates; assay: as above; format: cell-based; details: Escherichia coli, alone
Method: as §3, §4

[10] = system: Providencia stuartii (PST) isolates; assay: as above; format: cell-based; details: Providencia stuartii
Method: as §3, §4

T2 sequence (Q51574 22-275): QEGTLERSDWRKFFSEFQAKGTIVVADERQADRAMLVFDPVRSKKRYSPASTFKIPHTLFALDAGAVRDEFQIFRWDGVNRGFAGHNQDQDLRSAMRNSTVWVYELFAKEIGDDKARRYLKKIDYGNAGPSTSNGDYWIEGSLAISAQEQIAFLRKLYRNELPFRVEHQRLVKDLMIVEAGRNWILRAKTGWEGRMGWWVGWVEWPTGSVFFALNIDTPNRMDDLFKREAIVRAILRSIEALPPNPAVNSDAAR
T1 sequence (Q9F663 25-293 limits assumed): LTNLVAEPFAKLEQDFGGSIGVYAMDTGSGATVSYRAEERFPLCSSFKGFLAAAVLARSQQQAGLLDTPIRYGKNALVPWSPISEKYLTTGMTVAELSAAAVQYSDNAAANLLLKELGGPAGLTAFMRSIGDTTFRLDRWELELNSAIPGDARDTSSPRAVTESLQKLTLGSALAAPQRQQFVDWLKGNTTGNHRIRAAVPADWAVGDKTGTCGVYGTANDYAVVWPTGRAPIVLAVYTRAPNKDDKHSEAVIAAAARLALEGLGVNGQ

| SMILES | IC50 (KPC-2) | IC50 (OXA-15) | IC50 (SHV-1) | IC50 (SHV-12) | IC50 (OXA-23) | IC50 (OXA-48) | IC50 (OXA-1) | IC50 (CTX-M-15) | IC50 (OXA-58) | IC50 [2] | IC50 (OXA-11) | IC50 (OXA-40) | IC50 (P99 ampC) | IC50 (PAE ampC) | IC50 (SAU PC1) | further results |
| --- | --- | --- | --- | --- | --- | --- | --- | --- | --- | --- | --- | --- | --- | --- | --- | --- |
| NC(=O)[C@@H]1CC[C@@H]2CN1C(=O)N2OC(F)(F)C(=O)[O-].[Na+] [AF1] | 40 nM | 71 nM | 0.12 nM | 1.1 nM | 1700 nM | 75 nM | 1100 nM | 0.21 nM | 400 nM | 740 nM | 1000 nM | 2100 nM | 550 nM | 660 nM | 71 nM | IC50 (OXA-51): 1700 nM; AUC(0-inf) ([1]; intravenous 10 mg/kg): 4130 ng·h/mL; AUC(0-inf) ([1]; intravenous 20 mg/kg, Phosphate pH 7.4, solution): 12500 ng·h/mL; AUC(0-inf) [3]: 11200 ng·h/mL; IC50 (TEM-1; TEM-1, 30 min pre-incubation, nitrocefin 100 μM, read-out: IC50): 0.22 nM |
| N#C[C@@H]1CC[C@@H]2CN1C(=O)N2OC(F)(F)C(=O)[O-].[Na+] [AF2, sodium 2-[[(2S,5R)-2-cyano-7-oxo-1,6-diazabicyclo[3.2.1]octan-6-yl]oxy]-2,2-difluoro-acetate] | 12 nM | 4 nM | 1.4 nM | 1.1 nM | 11 nM | 0.7 nM | 11 nM | 0.16 nM | 2.1 nM | 70 nM | 13 nM | 12 nM | 54 nM | 140 nM | 3.1 nM | IC50 (OXA-51; OXA-51, 30 min pre-incubation, nitrocefin 100 μM): 51 nM; MIC ([4]; PMI UFR127, alone): >32 µg/mL; MIC ([4]; Proteus mirabilis): > 32 µg/mL; MIC [5]: > 32 µg/mL; MIC [6]: > 32 µg/mL; MIC [7]: > 32 µg/mL; MIC ([8]; KPN 131119, alone): >32 µg/mL; MIC ([8]; KPN 190270, alone): >32 µg/mL; MIC ([8]; KPN UFR25, alone): >32 µg/mL; MIC ([8]; KPN UFR66, alone): >32 µg/mL; MIC ([8]; KPN UFR68, alone): >32 µg/mL; MIC ([8]; Klebsiella pneumoniae): > 32 µg/mL; MIC ([9]; ECO 190317): > 32 µg/mL; MIC ([9]; ECO 190457): 16 µg/mL; MIC ([9]; ECO UFR16): > 32 µg/mL; MIC ([9]; ECO UFR20): > 32 µg/mL; MIC ([9]; ECO UFR61O): > 32 µg/mL; MIC ([9]; ECO UFR209): 32 µg/mL; MIC [10]: > 32 µg/mL; IC50 (TEM-1): 0.96 nM |
